Results taken from US20100254965A1, “Adenosine Signaling in Diagnosis, Treatment, and Prevention of Priapism and Erectile Dysfunction” (BOARD OF REGENTS ,THE UNIVERSITY OF TEXAS SYSTEM, priority 2006, published 2010).

Assays:
[1] = tested on: corpus cavernosal strips (CCS); assay: EFS-induced cGMP in CCS of ADA+ and ADA-/- mice; assay type: cell-based, mouse; conditions: EFS 5V 30 Hz, MRS1706 (10 nM), ZM241385 (50 nM), L-NAME (100 μM)
Protocol: FIG. 19. EFS leads to increased cAMP and cGMP production via A2BR in ADA-deficient mice. (a-b) Corpus cavernosal strips (CCS) of the ADA−/− and ADA+ mice were isolated and treated with 10 μM phenylephrine (PE) to induce precontraction. Then CCS were treated with MRS1706 (10 nM), ZM241385 (50 nM) or L-NAME (100 μM) prior to electrical field stimulation (EFS) at 5V and 30 Hz. 60 second after nerve stimulation, the CCS were quickly frozen and cellular cAMP (a) and cGMP (b) were measured by using commercial enzyme immunoassay kit (Amersham Pharmacia). N=4. Data are expressed as mean±SE. *p<0.05, ADA deficient mice versus the control; **p<0.05, CCS of ADA-deficient mice with MRS1706 and/or L-NAME treatment versus CCS of ADA-deficient mice without treatment; ***p<0.05, CCS of the control mice with MRS1706 and/or L-NAME treatment versus CCS of the control mice without treatment.
Function experiments. […] The contractility of each isolated corpus cavernosum smooth muscle cells (CCSM) strip was measured using an isometric force transducer (AD Instrument Inc., Georgia, Vt., USA). […] The contractile responses of the strips were analysed by adding 10 μM phenylephrine to the bath, and force changes were recorded in response to drug application and to electrical field stimulation. […]

[2] = tested on: corpus cavernosal smooth muscle cells (CCSM); assay: cAMP production in primary corpus cavernosal / penile vascular smooth muscle cells (CCSM, PVSM); assay type: cell-based, mouse; conditions: 10 min; for adenosine-mediated cAMP induction was blocked: CCSM, MRS1706 10 μM, ZM241385 50 nM
Protocol: PVSM were isolated and cultured from mouse penes. The cells were be switched to serum-free medium and treated with different concentrations of adenosine with or without A2B antagonist (MRS1706-1 μM) or A2A agonist (CGS-21680-1 μM) alone for 10 min. Then cellular extracts were collected and cAMP levels were measured using an ELISA kit. The data represent mean±SE.
Data are presented as mean±SE. *, p<0.01.
FIG. 18. Adenosine stimulated both cAMP and cGMP induction in corpus cavernosal smooth muscle cells (CCSM) via A2BR activation. (a) Adenosine receptor expression profile in purified primary CCSM. CCSM were purified from adult mouse penes. […] (b) CCSM were isolated and cultured from mouse penes. The cells were switched to serum-free medium and treated with different concentrations of adenosine with or without A2BR antagonist (MRS1706-10 μM), A2AR antagonist (ZM241385-50 nM) or A2AR agonist (CGS-21680-10 μM) alone for 10 min. Then cellular extracts were collected and cAMP levels were measured using an ELISA kit. The data represent mean±SE. *p<0.05, adenosine treated versus the untreated; **p<0.05, adenosine plus MRS1706 or ZM241385 versus the adenosine treated. (c) CCSM were isolated from penes of the wild type and A2BR-deficient mice and cultured with or without adenosine (100 μM), NECA (10 μM), a potent adenosine receptor agonist, forskolin (10 μM), an adenylyl cyclase agonist. After 10 min treatment, the cellular extracts were collected and cAMP levels were measured by using a commercial enzyme immunoassay kit (Amersham Pharmacia). N=4. *p<0.05, adenosine, forskolin and NECA treated versus the untreated control. (d) Corpus cavernosal strips (CCS) were isolated from wild type and A2BR-deficient mice and treated with different concentrations of adenosine in the presence or absence of L-NAME (100 μM) or MRS1706 (10 μM). 10 min after treatment, cellular extracts were collected and cGMP levels were measured by using a commercial enzyme immunoassay kit (Amersham Pharmacia). Data are expressed as mean±SE. *p<0.05, adenosine treated versus the control; **p<0.05, adenosine treated with MRS1706 versus the adenosine treated; ***p<0.05, CCS of A2BR-deficient mice treated with adenosine versus the CCS of wild type mice treated with adenosine. N=6-7. (e) CCSM were isolated from wild type and A2BR deficient mice and cultured with or without adenosine (100 μM), NECA (10 μM), a potent adenosine receptor agonist, forskolin (10 μM), an adenylyl cyclase agonist, or diethylamine-NONOate (DEA/NO) (10 μM). After 10 min treatment, the cellular extracts were collected and cAMP levels were measured by using a commercial enzyme immunoassay kit (Amersham Pharmacia). N=4. *p<0.05, DEA/NO treated versus to the untreated control. (f) Both cAMP and cGMP induction contribute to adenosine-mediated decreased PE-induced phosphorylation of myosin light chain (MLC). CCSM and CCS were isolated and cultured with the treatment of phenylephrine (PE-10 μM) in the presence or absence of adenosine (100 μM) or L-NAME (100 μM). 10 min after treatment, cellular extracts were isolated and western blot analysis were performed. The total MLC and phosphorylated MLC at S20 were detected by specific antibodies.
Isolation of primary corpus cavernosal smooth muscle cells (CCSM). Corpus cavernosum tissues were dissected as described above. Cavernosal tissue was washed in PBS and minced into […] pieces. Segments were incubated in 5-10 ml enzyme solutions containing 0.02% collagenase A (0.272 U/mg protein, Roche, Mannheim, Germany) and 0.5% elastase (3.73 U/mg protein, Cell system, St Katharinen, Germany) in a 75 mm flask at 37° C. for 6 hours. Enzymatic digestion was terminated by adding 10 ml DMEM supplemented with 10% fetal calf serum (FCS). […]

With `CCCn1c(=O)c2[nH]c(-c3ccc(OCC(=O)Nc4ccc(C(C)=O)cc4)cc3)nc2n(CCC)c1=O` [MRS1706] the “EFS-increased levels of cGMP were inhibited” value [1] was “significantly inhibited” and the “adenosine-mediated cAMP induction was blocked” value [2] was “blocked”.

In the case of `Nc1nc(NCCc2ccc(O)cc2)nc2nc(-c3ccco3)nn12` [ZM241385], the “EFS-increased levels of cGMP were inhibited” value [1] is reported as “not” and the “adenosine-mediated cAMP induction was blocked” value [2] is reported as “not”.

For `Nc1ncnc2c1ncn2[C@@H]1O[C@H](CO)[C@@H](O)[C@H]1O` [adenosine], the cAMP production ([2]; CCSM/PVSM of A2BR deficient (A2B-/-) mice) was “failed to induce cAMP production”, the cAMP production ([2]; CCSM/PVSM of A2BR deficient (A2B-/-) mice, listed as Adenosine) was “essentially no effect on cAMP levels” and the cAMP production ([2]; wild type CCSM/PVSM, agent alone) was “induced cAMP”. The cAMP production ([2]; wild type CCSM/PVSM, agent alone, listed as Adenosine) was “elevate cAMP levels”.
